Here are results for two compounds from ChEMBL document CHEMBL3044592, “Synthesis, antiproliferation, and docking studies of N-phenyl-lipoamide and 8-mercapto-N-phenyloctanamide derivatives: effects of C6 position thiol moiety” (2012).

What all share (assay): cells
Holding throughout (assay type): functional
Common to all, as to conditions: Homo sapiens, read-out: GI

For test [1], the system named is NCI-H460.
Description: Growth inhibition of Homo sapiens (human) NCI-H460 cells at 100 ug/ml by MTT assay
Test [2] has as its system KB.
Description: Growth inhibition of Homo sapiens (human) KB cells at 100 ug/ml by MTT assay
Test [3] deals with Bel-7402.
Description: Growth inhibition of Homo sapiens (human) Bel7402 cells at 100 ug/ml by MTT assay

Turning to `CC(=O)SCCCCCCCC(=O)Nc1ccccc1`, the inhibition of growth at 100 µg/mL in test [1] is 82.3%; in test [2] it was 77%; in test [3], 66.3%.

Take `O=C(CCCCCCCS)Nc1ccccc1` [8-MERCAPTO-OCTANOIC ACID PHENYLAMIDE]: the inhibition of growth at 100 µg/mL in test [1] was 32.4%; in test [2], 18.6%.
